Results on one compound are retold here after patent US8765464B2, “Kit for culturing cells comprising tube with flat wall, extracellular matrix and culture medium” (Kurashiki Boseki Kabushiki Kaisha, priority 2001, dated 2014).

Counter-ions that a name gives are not always drawn.

In data set [1] the test system is C-1, A-549, MKN-28, HFL-1, WI-38 cell lines and Lung-k primary lung cancer cells. Nature of the data set: Influence of vancomycin amount upon anticancer agent sensitivity test results. As to conditions: vancomycin not more than 3.0 mg/ml added in the preliminary culture step; Taxol, Taxotere, Gemcitabine, Navelbine. Format: cell-based, human. The text has this: (§1) As to the test material and the number of cells as seeded (test material/number of cells as seeded), the following were used: • C-1 (human colon cancer cell line)/1×10^5 cells/well • A-549 (human lung cancer cell line)/1×10^5 cells/well • MKN-28 human stomach cancer cell line)/1×10^5 cells/well • HFL-1 and WI-38 (human fibroblast cells line)/1×10^5 cells/well • Lung-k human primary lung cancer cells)/5×10^5 cells/well (in the preliminary culture step) or 2×10^5 cells/well (in the proliferative culture step)
(§2) The culture medium in the preliminary culture step was a culture medium as used in Example 1, and only the concentrations of the vancomycin produced by Wako Pure Chemicals Co., Ltd.) therein were settled in the following conditions: 0.1 mg/ml, 0.5 mg/ml, 1.0 mg/ml, 1.5 mg/ml, 2.0 mg/ml, 2.5 mg/ml, 3.0 mg/ml, 4.0 mg/ml, and 5.0 mg/ml, and tests were carried out in each condition. […]
(§3) (5) The resultant test plate is quantitatively analyzed with an image analyzer, and then the unfavorable influence upon the cell proliferativity and the anticancer agent sensitivity test results (antitumor effect T/C (%): relative proliferation ratio T/C (%) between a group non-treated with anticancer agents (C) and a group treated with anticancer agents (T), in the case where the ratio is not more than 50%, it is defined as having a sensitivity.) are observed. […]

Data set [2] relates to Lung-k human primary lung cancer cells. Nature of the data set: Confirmation test of cell toxicity according to vancomycin amount: preliminary culture step, primary cells. Format: cell-based. Particulars: human primary culturing cells, after 48 hours from the beginning of the culture. The procedure: (§4) Specifically, it is confirmed whether the vancomycin in the culture medium of the preliminary culture step has a unfavorable influence upon the cell proliferativity in the preliminary culture step, the cell proliferativity in the proliferative culture step, and the anticancer agent sensitivity test results or not, and then the following test was carried out. Herein, the unfavorable influence means such an influence as causes to decrease the cell proliferativity and success rate of the anticancer agent sensitivity test.
(§5) As to the test material and the number of cells as seeded (test material/number of cells as seeded), the following were used: • C-1 (human colon cancer cell line)/1×10^5 cells/well • A-549 (human lung cancer cell line)/1×10^5 cells/well • MKN-28 human stomach cancer cell line)/1×10^5 cells/well • HFL-1 and WI-38 (human fibroblast cells line)/1×10^5 cells/well • Lung-k human primary lung cancer cells)/5×10^5 cells/well (in the preliminary culture step) or 2×10^5 cells/well (in the proliferative culture step) […]
(§6) […] After the cells were counted with a blood-cell counter board, the cell number per 1 ml of the culture medium was calculated, and the cell proliferativity in the preliminary culture step was observed.

Data set [3] deals with C-1, A-549, MKN-28, HFL-1 and WI-38 cell lines. Nature of the data set: Confirmation test of cell toxicity according to vancomycin amount: cell proliferativity in preliminary culture step, cell lines. Format: cell-based, human. As to conditions: various cells, after 48 hours from the beginning of the culture. As to the method:
as §4, §5, §6

Data set [4] relates to C-1, A-549, MKN-28, HFL-1, WI-38 cell lines and Lung-k primary lung cancer cells. Nature of the data set: Confirmation test of cell toxicity according to vancomycin amount: cell proliferativity in proliferative culture step. Format: cell-based, human. Particulars: vancomycin not more than 3.0 mg/ml added in the preliminary culture step; after 7 days culture.
Description: as §1, §2, §3

Regarding `CN[C@H](CC(C)C)C(=O)N[C@H]1C(=O)N[C@@H](CC(N)=O)C(=O)N[C@H]2C(=O)N[C@H]3C(=O)N[C@H](C(=O)N[C@H](C(=O)O)c4cc(O)cc(O)c4-c4cc3ccc4O)[C@H](O)c3ccc(c(Cl)c3)Oc3cc2cc(c3O[C@@H]2O[C@H](CO)[C@@H](O)[C@H](O)[C@H]2O[C@H]2C[C@](C)(N)[C@H](O)[C@H](C)O2)Oc2ccc(cc2Cl)[C@H]1O` [vancomycin, vancomycin hydrochloride], the “unfavorable influence upon the anticancer agent sensitivity test results (antitumor effect T/C (%))” value in data set [1] is on record as “no unfavorable influence”. For the same compound, the “vancomycin concentration at which the cell number was maintained and cell toxicity (cells-killing action) was not observed” value in data set [2] is listed as “not more than 3.0 mg/ml”. Further, in data set [3], the “vancomycin concentration at which the cell proliferation was as good as without vancomycin” value is “not more than 2.0 mg/ml”. The “unfavorable influence upon the cell proliferativity in the proliferative culture step” value in data set [4] is reported as “not found”.
